Assay results taken from US20240190824A1, “INHIBITORS OF TREK (TWIK RELATED K+ CHANNELS) CHANNEL FUNCTION” (ONO PHARMACEUTICAL CO., LTD., priority 2019, published 2024).

These compounds were tested against human TREK-1 (Homo sapiens (Human), UniProt O95069) (assay: TREK-1 Thallium (Tl+) flux assay). Conditions: CHO-K1 cells stably expressing human TREK-1.
Type: cell-based

Sequence of human TREK-1 (O95069 whole entry): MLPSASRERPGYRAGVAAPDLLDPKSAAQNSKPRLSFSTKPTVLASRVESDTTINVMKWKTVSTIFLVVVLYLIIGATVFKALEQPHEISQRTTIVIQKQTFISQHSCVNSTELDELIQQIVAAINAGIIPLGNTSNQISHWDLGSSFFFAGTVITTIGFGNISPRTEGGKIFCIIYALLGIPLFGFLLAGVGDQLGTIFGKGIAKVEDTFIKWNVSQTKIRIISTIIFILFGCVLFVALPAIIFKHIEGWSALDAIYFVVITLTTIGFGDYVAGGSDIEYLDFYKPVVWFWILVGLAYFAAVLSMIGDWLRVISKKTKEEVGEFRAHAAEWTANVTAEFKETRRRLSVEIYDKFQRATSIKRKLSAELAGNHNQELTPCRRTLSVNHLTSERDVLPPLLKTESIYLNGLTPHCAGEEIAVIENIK

| Structure (SMILES) | IC50 [nM] |
| --- | --- |
| Cc1cc(C#Cc2ccccc2)cnc1N1Cc2ccc(NC(=O)OC(C)(C)C)cc2C1=O [Compound 44, tert-butyl N-[2-[3-methyl-5-(2-phenylethynyl)-2-pyridyl]-3-oxo-isoindolin-5-yl]carbamate] | 580 |
| Cc1ccc(NC(=O)OC(C)(C)C)cc1C(=O)Nc1ncc(C#Cc2ccccc2)cc1C [Compound 46, tert-butyl N-[4-methyl-3-[[3-methyl-5-(2-phenylethynyl)-2-pyridyl]carbamoyl]phenyl]carbamate] | 870 |
| Cc1cc(C#Cc2ccccc2)nc(C)c1NC(=O)c1cc(NC(=O)OC(C)(C)C)ccc1Cl [Compound 48, tert-butyl N-[4-chloro-3-[[2,4-dimethyl-6-(2-phenylethynyl)-3-pyridyl]carbamoyl]phenyl]carbamate] | 950 |
| Cc1cc(C#Cc2cccc(F)c2)nc(C)c1NC(=O)c1cc(NC(=O)[C@H]2C[C@@H]2C)ccc1Cl [Compound 49, 2-chloro-N-[6-[2-(3-fluorophenyl)ethynyl]-2,4-dimethyl-3-pyridyl]-5-[[(1S,2S)-2-methylcyclopropanecarbonyl]amino] benzamide] | 1090 |
| Cc1cc(C#Cc2ccccc2)cnc1NC(=O)c1cc(NC(=O)OC(C)(C)C)ccc1F [Compound 50, tert-butyl N-[4-fluoro-3-[[3-methyl-5-(2-phenylethynyl)-2-pyridyl]carbamoyl]phenyl]carbamate] | 1080 |
| Cc1cc(C#Cc2ccccc2)cnc1NC(=O)c1cc(NC(=O)OC(C)(C)C)cnc1Cl [Compound 52, tert-butyl N-[6-chloro-5-[[3-methyl-5-(2-phenylethynyl)-2-pyridyl]carbamoyl]-3-pyridyl]carbamate] | 2170 |
| Cc1cc(C#Cc2ccccc2)cnc1NC(=O)c1cc(C#N)ccc1Cl [Compound 53, 2-chloro-5-cyano-N-(3-methyl-5-(phenylethynyl)pyridin-2-yl)benzamide] | 810 |
| O=C(Nc1ncc(C#Cc2ccccc2)cc1F)c1cc(-c2noc(C3CCOC3)n2)ccc1Cl (centres unmarked) [Compound 54] | 80 |
| O=C(Nc1ncc(C#Cc2ccccc2)cc1F)c1cc(-c2cnn(C3CCOCC3)c2)ccc1Cl [Compound 55, 2-chloro-N-[3-fluoro-5-(2-phenylethynyl)-2-pyridyl]-5-(1-tetrahydropyran-4ylpyrazol-4-yl)benzamide] | 100 |
| O=C(Nc1ncc(C#Cc2ccccc2)cc1F)c1cc(-c2cnn(C3COC3)c2)ccc1Cl [Compound 56, 2-chloro-N-[3-fluoro-5-(2-phenylethynyl)-2-pyridyl]-5-[1-(oxetan-3-yl)pyrazol-4-yl]benzamide] | 110 |
| Cc1cc(C#Cc2ccccc2)cnc1NC(=O)c1cc(-c2nc(C3CC3)no2)ccc1Cl [Compound 57, 2-chloro-5-(3-cyclopropyl-1,2,4-oxadiazol-5-yl)-N-[3-methyl-5-(2-phenylethynyl)-2-pyridyl]benzamide] | 130 |
| Cc1cc(C#Cc2ccccc2)cnc1NC(=O)c1cc(-c2cnn(C3COC3)c2)ccc1Cl [Compound 58, 2-chloro-N-[3-methyl-5-(2-phenylethynyl)-2-pyridyl]-5-[1-(oxetan-3-yl)pyrazol-4-yl]benzamide] | 130 |
| Cn1cc(-c2ccc(Cl)c(C(=O)Nc3ncc(C#Cc4ccccc4)cc3F)c2)cn1 [Compound 59, 2-chloro-N-[3-fluoro-5-(2-phenylethynyl)-2-pyridyl]-5-(1-methylpyrazol-4-yl)benzamide] | 130 |
| Cc1cc(C#Cc2ccccc2)cnc1NC(=O)c1cc(C(=O)N2CC(C)(C)C2)ccc1Cl [Compound 60, 2-chloro-5-(3,3-dimethylazetidine-1-carbonyl)-N-[3-methyl-5-(2-phenylethynyl)-2-pyridyl]benzamide] | 140 |
| Cc1cc(C#Cc2ccccc2)cnc1NC(=O)c1cc(-c2ccnn2C)ccc1Cl [Compound 61, 2-chloro-N-[3-methyl-5-(2-phenylethynyl)-2-pyridyl]-5-(2-methylpyrazol-3-yl)benzamide] | 160 |
| Cc1cc(C#Cc2ccccc2)cnc1NC(=O)c1cc(-c2cnn(CCN3CCOCC3)c2)ccc1Cl [Compound 62, 2-chloro-N-[3-methyl-5-(2-phenylethynyl)-2-pyridyl]-5-[1-(2-morpholinoethyl)pyrazol-4-yl]benzamide] | 170 |
| Cc1noc(-c2ccc(Cl)c(C(=O)Nc3ncc(C#Cc4ccccc4)cc3C)c2)n1 [Compound 63, 2-chloro-5-(3-methyl-1,2,4-oxadiazol-5-yl)-N-[3-methyl-5-(2-phenylethynyl)-2-pyridyl]benzamide] | 200 |
| CCn1ccc(-c2ccc(Cl)c(C(=O)Nc3ncc(C#Cc4ccccc4)cc3C)c2)n1 [Compound 64, 2-chloro-5-(1-ethylpyrazol-3-yl)-N-[3-methyl-5-(2-phenylethynyl)-2-pyridyl]benzamide] | 200 |
| Cc1cc(C#Cc2ccccc2)cnc1NC(=O)c1cc(-c2cnn(C3CCOCC3)c2)ccc1Cl [Compound 65, 2-chloro-N-[3-methyl-5-(2-phenylethynyl)-2-pyridyl]-5-(1-tetrahydropyran-4-ylpyrazol-4-yl)benzamide] | 200 |
| Cc1cc(C#Cc2ccccc2)cnc1NC(=O)c1cc(-c2cnn(C3CCOC3)c2)ccc1Cl (centres unmarked) [Compound 66, 2-chloro-N-(3-methyl-5-(phenylethynyl)pyridin-2-yl)-5-(1-(tetrahydrofuran-3-yl)-1H-pyrazol-4-yl)benzamide] | 220 |
| Cc1nc(C)c(-c2ccc(Cl)c(C(=O)Nc3ncc(C#Cc4ccccc4)cc3F)c2)s1 [Compound 67, 2-chloro-5-(2,4-dimethylthiazol-5-yl)-N-[3-fluoro-5-(2-phenylethynyl)-2-pyridyl]benzamide] | 210 |
| Cc1nn(C)cc1-c1ccc(Cl)c(C(=O)Nc2ncc(C#Cc3ccccc3)cc2F)c1 [Compound 68, 2-chloro-5-(1,3-dimethylpyrazol-4-yl)-N-[3-fluoro-5-(2-phenylethynyl)-2-pyridyl]benzamide] | 220 |
| Cc1cc(C#Cc2ccccc2)cnc1NC(=O)c1cc(C(=O)N2CCCC2C)ccc1Cl (centres unmarked) [Compound 69, 2-chloro-N-[3-methyl-5-(2-phenylethynyl)-2-pyridyl]-5-(2-methylpyrrolidine-1-carbonyl)benzamide] | 230 |
| Cc1nc(C)c(-c2ccc(Cl)c(C(=O)Nc3ncc(C#Cc4ccccc4)cc3C)c2)s1 [Compound 70, 2-chloro-5-(2,4-dimethylthiazol-5-yl)-N-[3-methyl-5-(2-phenylethynyl)-2-pyridyl]benzamide] | 260 |
| Cc1cc(C#Cc2ccccc2)cnc1NC(=O)c1cc(C(=O)N2CC(O)C2)ccc1Cl [Compound 71, 2-chloro-5-(3-hydroxyazetidine-1-carbonyl)-N-[3-methyl-5-(2-phenylethynyl)-2-pyridyl]benzamide] | 300 |

The remaining lines, values ahead:

| IC50 [nM] | Structure (SMILES) |
| --- | --- |
| 360 | Cc1cc(C)n(C(=O)c2ccc(Cl)c(C(=O)Nc3ncc(C#Cc4ccccc4)cc3C)c2)n1 [Compound 72, 2-chloro-5-(3,5-dimethylpyrazole-1-carbonyl)-N-[3-methyl-5-(2-phenylethynyl)-2-pyridyl]benzamide] |
| 390 | Cc1cc(C#Cc2ccccc2)cnc1NC(=O)c1cc(C(=O)N2CC(F)C2)ccc1Cl [Compound 73, 2-chloro-5-(3-fluoroazetidine-1-carbonyl)-N-[3-methyl-5-(2-phenylethynyl)-2-pyridyl]benzamide] |
| 410 | Cc1cc(C#Cc2ccccc2)cnc1NC(=O)c1cc(-c2cn(C)nc2C)ccc1Cl [Compound 74, 2-chloro-5-(1,3-dimethylpyrazol-4-yl)-N-[3-methyl-5-(2-phenylethynyl)-2-pyridyl]benzamide] |
| 450 | Cc1ncc(-c2ccc(Cl)c(C(=O)Nc3ncc(C#Cc4ccccc4)cc3C)c2)s1 [Compound 75, 2-chloro-N-[3-methyl-5-(2-phenylethynyl)-2-pyridyl]-5-(2-methylthiazol-5-yl)benzamide] |
| 450 | Cc1cc(C#Cc2ccccc2)cnc1NC(=O)c1cc(-c2c(C)cnn2C)ccc1Cl [Compound 76, 2-chloro-5-(2,4-dimethylpyrazol-3-yl)-N-[3-methyl-5-(2-phenylethynyl)-2-pyridyl]benzamide] |
| 470 | Cc1cc(C#Cc2ccccc2)cnc1NC(=O)c1cc(-c2nnco2)ccc1Cl [Compound 77, 2-chloro-N-[3-methyl-5-(2-phenylethynyl)-2-pyridyl]-5-(1,3,4-oxadiazol-2-yl)benzamide] |
| 470 | Cc1cc(C#Cc2ccccc2)cnc1NC(=O)c1cc(-c2cnn(C)c2)ccc1Cl [Compound 78, 2-chloro-N-[3-methyl-5-(2-phenylethynyl)-2-pyridyl]-5-(1-methylpyrazol-4-yl)benzamide] |
| 870 | Cc1cc(C#Cc2ccccc2)cnc1NC(=O)c1cc(C(=O)N2CC(O)(C(F)(F)F)C2)ccc1Cl [Compound 79, 2-chloro-5-[3-hydroxy-3-(trifluoromethyl)azetidine-1-carbonyl]-N-[3-methyl-5-(2-phenylethynyl)-2-pyridyl]benzamide] |
| 60 | O=C(Nc1ncc(C#Cc2ccccc2)cc1F)c1cc(OC[C@H]2COCCO2)ccc1Cl [Compound 80, 2-chloro-5-[[(2R)-1,4-dioxan-2-yl]methoxy]-N-[3-fluoro-5-(2-phenylethynyl)-2-pyridyl]benzamide] |
| 360 | Cc1cc(C#Cc2ccccc2)cnc1N1Cc2ccc(OCC3COCCO3)cc2C1=O (centres unmarked) [Compound 81, 6-(1,4-dioxan-2-ylmethoxy)-2-[3-methyl-5-(2-phenylethynyl)-2-pyridyl]isoindolin-1-one] |
| 390 | Cc1cc(C#Cc2ccccc2)cnc1N1Cc2ccc(OCC3CCOCC3)cc2C1=O [Compound 82, 2-(3-methyl-5-(phenylethynyl)pyridin-2-yl)-6-((tetrahydro-2H-pyran-4-yl)methoxy)isoindolin-1-one] |
| 420 | Cc1cc(C#Cc2ccccc2)cnc1NC(=O)c1cc(OCCN2CCOCC2)ccc1Cl [Compound 84, 2-chloro-N-[3-methyl-5-(2-phenylethynyl)-2-pyridyl]-5-(2-morpholinoethoxy)benzamide] |
| 560 | Cc1cc(OCc2ccccc2)cnc1NC(=O)c1cc(NC(=O)OC(C)(C)C)ccc1Cl [Compound 87, tert-butyl N-[3-[(5-benzyloxy-3-methyl-2-pyridyl)carbamoyl]-4-chloro-phenyl]carbamate] |
